# Laboratory results: PMC6792352, “Limited Chemical Structural Diversity Found to Modulate Thyroid Hormone Receptor in the Tox21 Chemical Library” (Environmental Health Perspectives, 2019)
# Counter-ions that a name gives are not always drawn.
# Test: in vitro
# Settings: rat, gh3-tre-luc cells
SMILES,CC50 at 24 h (AC50 (uM) modified / 1000),also measured
Clc1ccc2ccccc2c1 [2-Chloronaphthalene],,"CC50 at 24 h (AC50 (uM) modified / 1000, Tox21_110001=Tox21_200981, viability, 1 nM T3 present, 24 h): > 90 µM"
CC[N+](=O)[O-] [Nitroethane],,"CC50 at 24 h (AC50 (uM) modified / 1000, Tox21_110001=Tox21_202217, viability, 1 nM T3 present, 24 h): > 90 µM"
O=C(O)CBr [Bromoacetic acid],,"CC50 at 24 h (AC50 (uM) modified / 1000, Tox21_110001=Tox21_200657, viability, 1 nM T3 present, 24 h): > 90 µM"
"CCCCC(CC)COC(=O)COc1cc(Cl)c(Cl)cc1Cl (stereo not drawn) [2,4,5-T 2-Ethylhexyl]",> 90 µM,
CCOP(=O)(Sc1ccccc1)Sc1ccccc1 [Edifenphos],,"CC50 at 24 h (AC50 (uM) modified / 1000, Tox21_110001=Tox21_301355, viability, 1 nM T3 present, 24 h): > 90 µM"
CCCc1ccc(C(=O)O)cc1 [4-Propylbenzoic acid],> 50 µM,
CN1[C@H]2CC[C@@H]1[C@@H](C(=O)O)[C@@H](OC(=O)c1ccccc1)C2 [Benzoylecgonine],,"CC50 at 24 h (AC50 (uM) modified / 1000, Tox21_110001=Tox21_112607, viability, 1 nM T3 present, 24 h): > 50 µM; CC50 at 24 h (AC50 (uM) modified / 1000, Tox21_110001=Tox21_112853, viability, 1 nM T3 present, 24 h): > 100 µM"
COc1c(C(C)(C)C)cc([N+](=O)[O-])c(C)c1[N+](=O)[O-] [Musk ambrette],,"CC50 at 24 h (AC50 (uM) modified / 1000, Tox21_110001=Tox21_201195, viability, 1 nM T3 present, 24 h): > 90 µM"
C[C@@H]1C[C@H]2[C@@H]3CCC4=CC(=O)C=C[C@]4(C)[C@@]3(F)[C@@H](O)C[C@]2(C)[C@@]1(O)C(=O)CO [Dexamethasone],> 90 µM,
CC(=O)N[C@H]1[C@H]([C@H](O)[C@H](O)CO)OC(C(=O)O)=C[C@@H]1N=C(N)N [Zanamivir],> 50 µM,
"CCC(C)(O)CCC=C(C)C (stereo not drawn) [3,7-Dimethyloct-6-en-3-ol]",> 90 µM,
COc1ccc2c(c1)C(=O)N(CCc1ccc(S(=O)(=O)NC(=O)NC3CCCCC3)cc1)C(=O)C2(C)C [Gliquidone],> 20 µM,
"CC(C)=CCl [2,2-Dimethylvinyl chloride]",> 90 µM,
"Nc1ccc(S(=O)(=O)O)c(N)c1 [2,4-Diaminobenzenesulfonic acid]",> 90 µM,
CCCCCCCCCCCCCCCCCC(=O)OCCCCCCCCCCCCCC(C)C [Isocetyl stearate],> 90 µM,
O=C(CCCN1CCN2CCCC2C1)c1ccc(F)cc1 (stereo not drawn) [Azabuperone],> 50 µM,
O=C(O)c1cccc(Oc2ccccc2)c1 [3-Phenoxybenzoic acid],> 90 µM,
CSc1ccc(C(=O)C(C)(C)N2CCOCC2)cc1 [2-Methyl-4'-(methylthio)-2-morpholinopropiophenone],,"CC50 at 24 h (AC50 (uM) modified / 1000, Tox21_110001=Tox21_301664, viability, 1 nM T3 present, 24 h): > 90 µM"
CCCCCCCCCCCCBr [1-Bromododecane],,"CC50 at 24 h (AC50 (uM) modified / 1000, Tox21_110001=Tox21_302046, viability, 1 nM T3 present, 24 h): > 90 µM"

SMILES,CC50 at 24 h (AC50 (uM) modified / 1000),also measured
CC(C)(C)C(=O)CCl [1-Chloropinacolone],> 90 µM,
"OCCCCO [1,4-Butanediol]",,"CC50 at 24 h (AC50 (uM) modified / 1000, Tox21_110001=Tox21_202245, viability, 1 nM T3 present, 24 h): > 90 µM"
"c1cc(C(c2ccc(OCC3CO3)cc2)c2ccc(OCC3CO3)cc2)ccc1OCC1CO1 (stereo not drawn) [2,2',2''-[Methanetriyltris(benzene-4,1-diyloxymethanediyl)]trioxirane]",19.4 µM,
"c1ccc2occc2c1 [2,3-Benzofuran]",> 90 µM,
Oc1ncc(N(CCCl)CCCl)c(O)n1 [Uracil mustard],> 50 µM,
CCCC(=O)OCCC(C)CCC=C(C)C (stereo not drawn) [Citronellyl butyrate],> 90 µM,
"OCCN1CCN(CCO)CC1 [1,4-Piperazinediethanol]",> 90 µM,
CCCCCC(O)/C=C/C=O (stereo not drawn) [(2E)-4-Hydroxy-2-nonenal],> 50 µM,
C=CCC1(C(C)CCC)C(=O)N=C(S)NC1=O (stereo not drawn) [Thiamylal sodium],,"CC50 at 24 h (AC50 (uM) modified / 1000, Tox21_110001=Tox21_111517, viability, 1 nM T3 present, 24 h): > 50 µM"
CC(C)CCCCCOC(=O)CCS [Isooctyl 3-mercaptopropionate],> 90 µM,
"O=Cc1ccc(Cl)c(Cl)c1 [3,4-Dichlorobenzaldehyde]",> 90 µM,
Cn1cnc([N+](=O)[O-])c1Sc1ncnc2nc[nH]c12 [Azathioprine],> 50 µM,
CCOP(=S)(OCC)OP(=S)(OCC)OCC [Sulfotepp],,"CC50 at 24 h (AC50 (uM) modified / 1000, Tox21_110001=Tox21_201756, viability, 1 nM T3 present, 24 h): > 90 µM"
O=[N+]([O-])c1cccc(C(F)(F)F)c1 [1-Nitro-3-(trifluoromethyl)benzene],> 90 µM,
CCCCCCCCCCCCCOC(=O)CCSCCC(=O)OCCCCCCCCCCCCC [Di(tridecyl) thiodipropionate],> 20 µM,
CON(C)C(=O)Nc1ccc(Br)cc1 [Metobromuron],,"CC50 at 24 h (AC50 (uM) modified / 1000, Tox21_110001=Tox21_301964, viability, 1 nM T3 present, 24 h): > 90 µM"
CCN(CC)CCOc1ccc(-c2nc3cc(Cl)ccc3s2)cc1 [Halethazole hydrochloride],8.14 µM,
CCCCCCCOC(C)=O [Heptyl acetate],> 90 µM,
CSSC [Methyl disulfide],,"CC50 at 24 h (AC50 (uM) modified / 1000, Tox21_110001=Tox21_201525, viability, 1 nM T3 present, 24 h): > 90 µM"
